Test results: BigSolDB 2.1

CC(=O)N1CCN(c2ccc(OC[C@@H]3CO[C@@](Cn4ccnc4)(c4ccc(Cl)cc4Cl)O3)cc2)CC1 (racemic)
solubility (mole fraction) (in isopropanol, 293.2 K): 0.000774
solubility (mole fraction) (in isopropanol, 298.2 K): 0.00102
solubility (mole fraction) (in isopropanol, 303.2 K): 0.00136
solubility (mole fraction) (in isopropanol, 308.2 K): 0.00204
solubility (mole fraction) (in isopropanol, 313.2 K): 0.00291
solubility (mole fraction) (in propylene glycol, 293.2 K): 0.00148
solubility (mole fraction) (in propylene glycol, 298.2 K): 0.00195
solubility (mole fraction) (in propylene glycol, 303.2 K): 0.00264
solubility (mole fraction) (in propylene glycol, 308.2 K): 0.0039
solubility (mole fraction) (in propylene glycol, 313.2 K): 0.00562
